Reference: US8884011B2, “Nucleotide analogues as precursor molecules for antivirals” (Centre National de la Recherche Scientifique-CNRS, priority 2006, dated 2014)

Assays:
HBV [1] = assay: Anti-HBV test in infected HepAD38 cells (intracellular viral DNA by Q-PCR); type: cell-based; details: Hepatitis B virus, 144 h; infected HepAD38 cells; 50% reduction of viral DNA; day 6 post-induction
Description: These are hepatoma cells that have been stably transfected with a cDNA copy of the pregenomic RNA of wild-type virus. Withdrawal of tetracycline from the culture medium results in the initiation of viral replication. This offers the advantage, in contrast to the Hep G2.2.15 cell lines commonly used, that there is no, or very limited background viral DNA synthesis. Cells were cultured at 37° C. in a humidified 5% CO2/air atmosphere in seeding medium, DMEM/Ham's F12 (50/50) supplemented with 10% (v/v) heat-inactivated fetal calf serum, 100 IU/ml penicillin, 50 μg/ml streptomycin, 100 Ξg/ml kanamycin, 400 μg/ml G418, and 0.3 μg/ml tetracycline. […] After 2-3 days the cultures were induced for viral production by washing with prewarmed PBS and were fed with […] assay medium (seeding medium without tetracycline and G418) with or without the antiviral compounds. Medium was changed after 3 days. The antiviral effect was quantified by measuring levels of intracellular viral DNA at day 6 post-induction, by a real time quantitative PCR (Q-PCR) method. Total cellular DNA was extracted from the cells by means of a commercial kit. […] The reaction was analyzed using a SDS 7000. A plasmid containing the full length insert of the HBV genome was used to prepare the standard curve. The amount of viral DNA produced in treated cultures was expressed as a percentage of the mock treated samples. […] The cytostatic effect of the various compounds was assessed employing the parent hepatoma cell line HepG2. The effect of the compounds on exponentially growing HepG2 cells was evaluated by means of the MTS method. Briefly, cells were seeded at a density of 3000/well (96 well plate) and were allowed to proliferate for 3 days in the absence or presence of compounds after which the optical density was measured with a 96-well plate reader and cell density was determined.

HBV [2] = assay: Anti-HBV test in infected Huh7 cells; type: cell-based; details: Hepatitis B virus, Huh-7, read-out: EC50 (μM) HBV
HIV-1 (IIIB) = assay: Anti-HIV test in CEM cell cultures, syncytium formation, HIV-1 (IIIB); type: cell-based; details: Human immunodeficiency virus 1, IIIB, CCRF-CEM, read-out: EC50 (μM) HIV-1
Description: Briefly, CEM cells (4.5×10^5 cells per ml) were suspended in fresh culture medium and infected with HIV-1 at 100 CCID50 per ml of cell suspension. Then, 100 μl of the infected cell suspension were transferred to microplate wells, mixed with 100 μl of the appropriate dilutions of the test compounds, and further incubated at 37° C. After 4 to 5 days, giant cell formation was recorded microscopically in the CEM cell cultures.

HIV-2 (ROD) = assay: Anti-HIV test in CEM cell cultures, syncytium formation, HIV-2 (ROD); type: cell-based; details: Human immunodeficiency virus 2, CCRF-CEM, read-out: EC50 (μM) HIV-2
[3] = Cytotoxicity in CEM cell cultures (cell density); type: cell-based; details: human, 50% reduction in cell density, read-out: TC50 (the source's name)
HIV-1-LAI = assay: Anti-HIV test in CMSP cultures infected by HIV-1-LAI (RT activity in supernatants); type: cell-based; details: Human immunodeficiency virus 1, 168 h, read-out: EC50 (μM) HIV-1 (LAI)
[4] = test system: vesicular stomatitis virus; assay: microbe, parasite or virus in culture; type: cell-based; details: HEL, read-out: in vitro antiviral activity (EC50), none up to
Coxsackie B4 = assay: Virus panel, CPE assay: Coxsackie B4 virus in Hela and Vero cells; type: cell-based; details: Enterovirus B, read-out: in vitro antiviral activity (EC50), none up to
[5] = test system: respiratory syncytial virus; assay: Virus panel, CPE assay: respiratory syncytial virus in Hela cells; type: cell-based; details: human respiratory syncytial virus, read-out: in vitro antiviral activity (EC50), none up to
influenza A (H1N1) = assay: Virus panel: influenza A (H1N1) in MDCK cells; type: cell-based; details: read-out: in vitro antiviral activity (EC50), none up to
Description: (§1) influenza A (H1N1), influenza A (H3N2), influenza B, in MDCK cells;

influenza A (H3N2) = assay: Virus panel: influenza A (H3N2) in MDCK cells; type: cell-based; details: read-out: in vitro antiviral activity (EC50), none up to
Description: as §1

influenza B = assay: Virus panel: influenza B in MDCK cells; type: cell-based; details: read-out: in vitro antiviral activity (EC50), none up to
Description: as §1

Parainfluenza-3-virus = assay: Virus panel, CPE assay: Parainfluenza-3-virus in Vero cells; type: cell-based; details: read-out: in vitro antiviral activity (EC50), none up to
Reovirus-1 = assay: Virus panel, CPE assay: Reovirus-1 in Vero cells; type: cell-based; details: Reovirus-1, Vero cells; read-out: in vitro antiviral activity (EC50), none up to
Sindbis virus = assay: Virus panel, CPE assay: Sindbis virus in Vero cells; type: cell-based; details: read-out: in vitro antiviral activity (EC50), none up to
Punta Toro virus = assay: Virus panel, CPE assay: Punta Toro virus in Vero cells; type: cell-based; details: read-out: in vitro antiviral activity (EC50), none up to
Feline Herpes virus = assay: Virus panel: Feline Herpes virus in CRFK cells; type: cell-based
Description: Feline Corona virus and Feline Herpes virus in CRFK cells.

[6] = test system: Herpes simplex virus-2 (G); assay: Virus panel, CPE assay: Herpes simplex virus-2 (G) in HEL cells; type: cell-based; details: Human alphaherpesvirus 2
[7] = Stability in complete medium (RPMI 1640 containing 10% heat-inactivated fetal calf serum), HPLC; type: in vitro ADME
Description: (§2) Media and preparation of cell extracts. Culture medium was composed by RPMI 1640 containing 10% (v/v) heat-inactivated fetal calf serum and stored at −80° C. CEM-SS cell extracts were prepared according to a published procedure (Puech, F. et al. Antiv. Res. 1993, 22, 155-174). Exponentially growing CEM-SS cells were recovered by centrifugation (500 g, 4° C., 4 min), washed twice with PBS and resuspended in 10 mM Tris-HCl, 140 mM KCl (pH 7.4), at the concentration of 30×10^6 cells/mL. Cells were lyzed by ultrasonic treatment and cellular debris were removed by centrifugation (10000 g, 4° C., 20 min). The supernatant containing soluble proteins (3 mg/mL) was stored at −80° C.
Kinetic data and decomposition pathways for compounds 6 and 11 were studied at 37° C. (a) in complete medium (RPMI 1640 containing 10% heat-inactivated fetal calf serum (b) in total cells extracts (CEM-SS). For each kinetic study, the compound solution was diluted with a freshly thawed aliquot of the considered medium to obtain an initial concentration of 0.1 mM. The mixture was incubated at 37° C. and for the required time, an aliquot (10% solution) was taken and immediately frozen at −80° C. for further HPLC analysis. The crude sample was injected into the precolumn and eluted with buffer A during 5 min. Then, the switching valve for connecting the precolumn to the column was activated, and a linear gradient from buffer A to buffer B, increasing buffer B from 0% at 0 min to 20% at 40 min is applied. The retention times were 6, 26 min; 11, 29.5 min, PMEA, 24.3 min and (R)-PMPA, 27.8 min.
All the compounds were analyzed under the same conditions. The amount of remaining parent compound at each time point was used to determine the half-life of the compound. The product of degradation from parent compound was determined by comparison with corresponding references.

[8] = Stability in total cell extracts (CEM-SS), HPLC; type: in vitro ADME; details: 37° C., 0.1 mM
Description: as §2
Kinetic data and decomposition pathways for compounds 6 and 11 were studied at 37° C. […]
All the compounds were analyzed under the same conditions. […] The product of degradation from parent compound was determined by comparison with corresponding references.

[9] = Cytotoxicity by MTT test in cultures of uninfected CMSP; details: human
[10] = Cytostatic effect on parent hepatoma cell line HepG2 (MTS method); details: human

Q: Which results are given for Nc1ncnc2c1ncn2CCOCP(=O)(O)S (stereo not drawn) [Compound 6, 9-[2-(thiophosphonomethoxy)ethyl]adenine]?
A: EC50 (HBV [1]): 9.6 µM; EC50 (HBV [2]): 4.5 µM; EC50 (HIV-1 (IIIB)): 12.2 µM; EC50 (HIV-2 (ROD)): 10.4 µM; CC50 [3]: > 332 µM; EC50 (HIV-1-LAI): 7 µM; EC50 [4]: > 200 µM; EC50 (Coxsackie B4): > 200 µM; EC50 [5]: > 200 µM; EC50 (influenza A (H1N1)): > 200 µM; EC50 (influenza A (H3N2)): > 200 µM; EC50 (influenza B): > 200 µM; EC50 (Parainfluenza-3-virus): > 200 µM; EC50 (Reovirus-1): > 200 µM; EC50 (Sindbis virus): > 200 µM; EC50 (Punta Toro virus): > 200 µM; EC50 (Feline Herpes virus): 38 µM; EC50 [6]: 58 µM; half-life at 0.1 mM ([7]; bovine, serum, 37° C., initial concentration 0.1 mM, read-out: t1/2 complete medium): > 24 h; product intact ([7]; complete medium, 37° C., degradation into the phosphonate): ^a: product 80% intact (degradation into PMEA); degradation ([7]; culture medium): 20%; t1/2 cell extracts [8]: stable^c; CC50 at 7 days [9]: > 42 µM; CC50 at 3 days [10]: > 166 µM
